According to US9290478B2, “Substituted quinoxalines as FGFR kinase inhibitors” (ASTEX THERAPEUTICS LTD, priority 2010, dated 2016):

Tests used:
FGFR3 (h) = FGFR3 (h) (Homo sapiens, UniProt P22607); test: FGFR3 (enzymatic assay), TR-FRET; format: biochemical; conditions: 25 μM ATP; read-out: FGFR3 pIC50 (converted)
Experimental: (§1) In a final reaction volume of 30 μL, FGFR3 (h) (40 ng/ml) was incubated with 50 mM HEPES pH 7.5, 6 mM MnCl2, 1 mM DTT, 0.1 mM Na3VO4, 0.01% Triton-X-100, 500 nM Btn-Flt3 and 25 μM ATP in the presence of compound (1% DMSO final). After incubation for 60 minutes at room temperature the reaction was stopped with 2.27 nM EU-anti P-Tyr, 7 mM EDTA, 31.25 nM SA-XL-665 and 0.02% BSA which was present for 60 minutes at room temperature. Time-Resolved Fluorescence Resonance Energy Transfer (TR-FRET) signal (ex340 nm. Em 620 nm, em 655 nm) was measured afterwards and results are expressed in RFU (Relative Fluorescence Units). In this assay, the inhibitory effect of different compound concentrations (range 10 μM to 0.1 nM) was determined and used to calculate an IC50 (M) and pIC50 (−log IC50) value.

KDR (h) (VEGFR2) = KDR (h) (VEGFR2) (Homo sapiens, UniProt P35968); test: KDR (VEGFR2) (enzymatic assay), TR-FRET; format: biochemical; conditions: 3 μM ATP; read-out: VEGFR2 (KDR) pIC50 (converted)
Experimental: KDR (VEGFR2) (Enzymatic Assay)
as §1, with “30 μL, KDR (h) (150” for “30 μL, FGFR3 (h) (40”, “KDR (h) (150 ng/ml) was” for “FGFR3 (h) (40 ng/ml) was”, “Btn-Flt3 and 3 μM ATP” for “Btn-Flt3 and 25 μM ATP”, “incubation for 120 minutes at” for “incubation for 60 minutes at”

[1] = target: T1, Ba/F3-Flt3-transfected cells (Homo sapiens, UniProt P36888, cells depend on it, form not given); test: Ba/F3-Flt3 (minus IL3 or plus IL3) cellular proliferation assay; format: cell-based; conditions: minus IL3
T1 construct: BAF3-FLT3 (MIN IL3) pIC50; other: minus IL3
T1 sequence (P36888 1-993): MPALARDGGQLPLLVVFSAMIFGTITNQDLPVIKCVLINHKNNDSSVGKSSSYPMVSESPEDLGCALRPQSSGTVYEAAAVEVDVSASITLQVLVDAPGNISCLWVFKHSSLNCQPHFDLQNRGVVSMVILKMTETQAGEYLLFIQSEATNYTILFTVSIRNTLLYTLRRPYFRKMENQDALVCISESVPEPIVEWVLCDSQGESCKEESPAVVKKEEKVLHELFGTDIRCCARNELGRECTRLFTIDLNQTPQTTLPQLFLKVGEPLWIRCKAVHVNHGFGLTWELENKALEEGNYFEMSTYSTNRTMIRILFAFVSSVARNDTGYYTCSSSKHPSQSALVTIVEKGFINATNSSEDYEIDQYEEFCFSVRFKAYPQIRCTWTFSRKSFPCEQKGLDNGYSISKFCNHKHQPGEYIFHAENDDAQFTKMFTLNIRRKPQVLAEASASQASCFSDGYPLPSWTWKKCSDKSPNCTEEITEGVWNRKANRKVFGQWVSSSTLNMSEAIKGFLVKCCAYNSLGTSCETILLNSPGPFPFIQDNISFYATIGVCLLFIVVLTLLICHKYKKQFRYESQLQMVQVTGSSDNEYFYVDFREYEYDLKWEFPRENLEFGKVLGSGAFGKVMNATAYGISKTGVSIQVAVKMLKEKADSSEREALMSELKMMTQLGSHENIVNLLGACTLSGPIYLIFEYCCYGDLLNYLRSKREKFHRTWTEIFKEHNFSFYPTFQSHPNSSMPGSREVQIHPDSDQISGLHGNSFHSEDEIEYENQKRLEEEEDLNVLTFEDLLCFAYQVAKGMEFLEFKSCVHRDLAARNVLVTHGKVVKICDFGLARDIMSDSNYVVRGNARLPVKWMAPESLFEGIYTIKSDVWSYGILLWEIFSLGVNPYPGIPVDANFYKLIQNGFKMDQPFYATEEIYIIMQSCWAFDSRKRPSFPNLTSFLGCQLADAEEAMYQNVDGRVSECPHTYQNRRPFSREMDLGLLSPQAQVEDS
Experimental: (§2) Ba/F3-Flt3 (Minus IL3 or Plus IL3) (Cellular Proliferation Assay)
(§3) In a 384 well plate, 100 nl of compound dilution in DMSO was sprayed before adding 50 μl cell culture medium (phenol red free RPMI-1640, 10% FBS, 2 mM L-Glutamine and 50 μg/ml Gentamycin) containing 20000 cells per well of Ba/F3-Flt3-transfected cells. Cells were put in an incubator at 37° C. and 5% CO2. After 24 hours, 10 μl of Alamar Blue solution (0.5 mM K3Fe(CN)6, 0.5 mM K4Fe(CN)6, 0.15 mM Resazurin and 100 mM Phosphate Buffer) was added to the wells, incubated for 4 hours at 37° C. and 5% CO2 before RFU's (Relative Fluorescence Units) (ex. 540 nm., em. 590 nm.) were measured in a fluororescence plate reader.
(§4) In this assay, the inhibitory effect of different compound concentrations (range 10 μM to 0.1 nM) was determined and used to calculate an IC50 (M) and pIC50 (−log IC50) value.
(§5) As a counterscreen the same experiment was performed in the presence of 10 ng/ml murine IL3.

[2] = system: Ba/F3-Flt3-transfected cells; test: as above; format: cell-based; conditions: 24 h; plus 10 ng/ml murine IL3 (counterscreen); read-out: BAF3_FLT3 (PLUS IL3) pIC50 (converted)
Experimental: as §2, §3, §4, §5

Sequence of FGFR3 (h) (P22607 23-806): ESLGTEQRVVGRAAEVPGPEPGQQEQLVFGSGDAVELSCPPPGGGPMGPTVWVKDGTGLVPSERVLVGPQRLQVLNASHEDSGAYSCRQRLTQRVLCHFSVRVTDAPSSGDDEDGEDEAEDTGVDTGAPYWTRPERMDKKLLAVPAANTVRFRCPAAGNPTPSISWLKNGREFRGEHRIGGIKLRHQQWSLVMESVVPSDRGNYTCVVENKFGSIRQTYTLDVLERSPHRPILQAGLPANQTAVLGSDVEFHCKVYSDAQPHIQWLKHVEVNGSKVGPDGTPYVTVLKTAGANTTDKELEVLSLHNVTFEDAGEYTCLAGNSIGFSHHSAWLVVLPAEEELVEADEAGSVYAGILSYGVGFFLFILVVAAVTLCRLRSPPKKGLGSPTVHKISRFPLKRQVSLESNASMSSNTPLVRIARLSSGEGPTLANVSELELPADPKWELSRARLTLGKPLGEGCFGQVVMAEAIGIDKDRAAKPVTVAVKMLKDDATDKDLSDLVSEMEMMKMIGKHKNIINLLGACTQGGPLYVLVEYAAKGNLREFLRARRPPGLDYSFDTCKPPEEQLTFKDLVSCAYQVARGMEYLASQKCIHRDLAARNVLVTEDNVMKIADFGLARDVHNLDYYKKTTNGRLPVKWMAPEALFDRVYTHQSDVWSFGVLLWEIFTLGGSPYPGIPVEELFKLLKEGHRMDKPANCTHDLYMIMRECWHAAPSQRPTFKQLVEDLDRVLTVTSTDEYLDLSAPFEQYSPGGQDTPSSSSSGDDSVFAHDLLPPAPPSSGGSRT
Sequence of KDR (h) (VEGFR2) (P35968 20-1356): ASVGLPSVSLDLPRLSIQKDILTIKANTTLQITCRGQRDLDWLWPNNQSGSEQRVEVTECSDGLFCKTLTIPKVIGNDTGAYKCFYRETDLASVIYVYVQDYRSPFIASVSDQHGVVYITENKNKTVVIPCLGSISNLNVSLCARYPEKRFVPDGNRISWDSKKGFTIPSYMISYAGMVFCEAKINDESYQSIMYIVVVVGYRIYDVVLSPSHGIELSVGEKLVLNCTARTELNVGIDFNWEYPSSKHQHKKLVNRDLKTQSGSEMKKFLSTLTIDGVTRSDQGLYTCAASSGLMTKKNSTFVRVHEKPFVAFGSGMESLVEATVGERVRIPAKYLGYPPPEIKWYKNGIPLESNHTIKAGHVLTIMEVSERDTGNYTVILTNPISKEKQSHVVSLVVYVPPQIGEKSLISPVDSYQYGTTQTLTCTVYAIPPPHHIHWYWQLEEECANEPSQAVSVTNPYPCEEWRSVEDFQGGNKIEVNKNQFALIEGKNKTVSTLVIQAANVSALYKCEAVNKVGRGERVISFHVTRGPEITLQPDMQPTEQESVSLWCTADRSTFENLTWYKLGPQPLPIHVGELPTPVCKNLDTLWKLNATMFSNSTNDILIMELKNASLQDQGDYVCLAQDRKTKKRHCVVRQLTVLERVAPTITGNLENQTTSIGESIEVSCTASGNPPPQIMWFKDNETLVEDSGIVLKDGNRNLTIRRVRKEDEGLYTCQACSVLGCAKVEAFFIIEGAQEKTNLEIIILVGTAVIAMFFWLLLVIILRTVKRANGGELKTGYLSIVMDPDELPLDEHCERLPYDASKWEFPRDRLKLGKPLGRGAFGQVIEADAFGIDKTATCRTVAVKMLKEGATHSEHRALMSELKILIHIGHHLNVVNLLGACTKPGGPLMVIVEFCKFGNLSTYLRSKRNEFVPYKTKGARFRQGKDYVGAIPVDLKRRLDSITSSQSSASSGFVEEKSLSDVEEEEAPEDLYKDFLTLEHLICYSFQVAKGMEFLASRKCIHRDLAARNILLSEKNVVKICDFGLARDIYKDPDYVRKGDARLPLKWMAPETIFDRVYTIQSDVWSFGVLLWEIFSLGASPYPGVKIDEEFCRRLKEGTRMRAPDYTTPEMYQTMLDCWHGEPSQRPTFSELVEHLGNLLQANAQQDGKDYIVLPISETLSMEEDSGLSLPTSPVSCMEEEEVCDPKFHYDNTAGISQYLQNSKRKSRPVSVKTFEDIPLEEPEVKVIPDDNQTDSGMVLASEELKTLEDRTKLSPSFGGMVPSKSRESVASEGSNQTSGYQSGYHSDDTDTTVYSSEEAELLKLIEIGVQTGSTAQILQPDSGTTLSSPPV

Structure (SMILES) | IC50 (FGFR3 (h)) | IC50 (KDR (h) (VEGFR2)) | BAF3-FLT3 (MIN IL3) pIC50 [1] | IC50 [2]
COc1cc(OC)cc(C(CCNC(C)C)c2ccc3ncc(-c4cnn(C)c4)nc3c2)c1.Cl (stereo not drawn) [Compound 29, {3-(3,5-Dimethoxy-phenyl)-3-[3-(1-methyl-1H-pyrazol-4-yl)-quinoxalin-6-yl]-propyl}-isopropyl-amine] | 35.5 nM | > 1000 nM | <5 | > 10000 nM
COc1cc(OC)cc(C2(c3ccc4ncc(-c5cnn(C)c5)nc4c3)CC2)c1 [Compound 30] | 43.7 nM | 501 nM | <5 | > 10000 nM
COc1cc(OC)cc(C(CCNCC(F)(F)F)c2ccc3ncc(-c4cnn(C)c4)nc3c2)c1.Cl (stereo not drawn) [Compound 33] | 138 nM | > 1000 nM | <5 | > 10000 nM
COc1cc(OC)cc(/C(=C/CN(C)C)c2ccc3ncc(-c4cnn(C)c4)nc3c2)c1 [Compound 34] | 107 nM | > 1000 nM | <5 | > 10000 nM
CN(C)CCC(c1ccccc1)c1ccc2ncc(-c3cnn(C)c3)nc2c1 (stereo not drawn) [Compound 35] | > 1000 nM | > 1000 nM | <5 | > 10000 nM
COc1cc(OC)cc(C(CCCN)c2ccc3ncc(-c4cnn(C)c4)nc3c2)c1.Cl (stereo not drawn) [Compound 40] | 269 nM | > 1000 nM | <5 | > 10000 nM
